This note sets out measurements from ChEMBL document CHEMBL5325421, “Discovery of novel sulfonamide chromone-oxime derivatives as potent indoleamine 2,3-dioxygenase 1 inhibitors” (Eur J Med Chem, 2023).

Test [1] deals with T1, Indoleamine 2,3-dioxygenase 1 (Homo sapiens, UniProt P14902). Kind of test: Inhibition of IDO1 in IFN-gamma treated human HeLa cells incubated for 48 hrs by absorbance based analysis. Format: cell-based.
Another test deals with A549. Kind of test: cells. The settings on record: Homo sapiens, A549, 48 h.
A further test has as its system SW480. Kind of test: cells. The settings on record: Homo sapiens, SW480, 48 h.
The subject of the next test is HCT-116. Kind of test: cells. As to conditions: Homo sapiens, HCT-116, 48 h.
In another test the test system is HeLa. Kind of test: cells. The settings on record: Homo sapiens, 48 h.
Test [2] concerns the target T1, Indoleamine 2,3-dioxygenase 1. The test can be described thus: Inhibition of human recombinant IDO1 measured after 60 mins by fluorescence based analysis.

T1 sequence (P14902 whole entry): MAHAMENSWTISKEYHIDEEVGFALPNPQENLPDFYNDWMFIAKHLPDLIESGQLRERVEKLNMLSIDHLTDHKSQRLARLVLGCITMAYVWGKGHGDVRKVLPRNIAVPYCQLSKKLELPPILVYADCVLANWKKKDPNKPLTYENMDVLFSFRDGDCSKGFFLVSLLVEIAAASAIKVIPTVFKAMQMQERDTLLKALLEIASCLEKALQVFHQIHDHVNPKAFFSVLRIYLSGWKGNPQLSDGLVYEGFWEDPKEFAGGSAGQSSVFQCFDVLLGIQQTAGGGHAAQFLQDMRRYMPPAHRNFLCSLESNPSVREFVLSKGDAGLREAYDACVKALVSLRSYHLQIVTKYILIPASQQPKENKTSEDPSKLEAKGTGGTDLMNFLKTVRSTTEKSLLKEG

In the case of `COc1ccc2/c(=N/O)cc(C(=O)N3CCN(S(=O)(=O)c4ccccc4C(F)(F)F)CC3)oc2c1`, the IC50 was more than 10 µM in test [1]; more than 50 µM in the test on A549; more than 50 µM in the test on SW480; more than 50 µM with HCT-116; 38 µM in the test on HeLa; 8.85 µM in test [2].
In the case of `Cc1ccc2/c(=N/O)cc(C(=O)N3CCN(S(=O)(=O)c4ccc(F)c(F)c4)CC3)oc2c1`, the 50% inhibitory concentration (IC50) is 5.75 µM in test [1]; more than 50 µM in the test with A549; 27.6 µM in the test with SW480; 4.18 µM in the test on HCT-116; more than 50 µM with HeLa; 5.59 µM in test [2].
For the compound `COc1ccc2/c(=N/O)cc(C(=O)N3CCN(S(=O)(=O)c4cccc(F)c4)CC3)oc2c1`, the IC50 in test [1] was 4.13 µM; in the test on A549, more than 50 µM; in the test with SW480, more than 50 µM; in the test on HCT-116 it was more than 50 µM; with HeLa, 42.8 µM; in test [2], 2.38 µM.
On to `COc1ccc(S(=O)(=O)N2CCN(C(=O)c3c/c(=N\O)c4ccc(C)cc4o3)CC2)cc1OC`, for which the IC50 is 7.8 µM in test [1]; more than 50 µM in the test on A549; more than 50 µM in the test with SW480; more than 50 µM in the test on HCT-116; more than 50 µM in the test on HeLa; 6.23 µM in test [2].
Consider `COc1ccc(S(=O)(=O)N2CCN(C(=O)c3c/c(=N\O)c4ccc(OC)cc4o3)CC2)cc1`, for which the IC50 in test [1] is 8.52 µM; with A549 it was more than 50 µM; in the test on SW480 it was 39.2 µM; in the test with HCT-116 it was 29.5 µM; in the test on HeLa it was 36.8 µM; in test [2], 6.35 µM.
Take `Cc1ccc2/c(=N/O)cc(C(=O)N3CCN(S(=O)(=O)c4ccc(F)cc4)CC3)oc2c1`: the IC50 in test [1] is 9.29 µM; with A549, more than 50 µM; with SW480, 31.2 µM; in the test with HCT-116, 34.8 µM; in the test on HeLa, more than 50 µM; in test [2], 9.18 µM.
On to `Cc1ccc2/c(=N/O)cc(C(=O)N3CCN(S(=O)(=O)c4ccc(Cl)cc4)CC3)oc2c1`, for which the IC50 in test [1] is more than 10 µM; in the test on A549, more than 50 µM; with SW480 it was more than 50 µM; in the test with HCT-116 it was 15.2 µM; in the test with HeLa it was more than 50 µM; in test [2], more than 10 µM.
For `COc1ccc2/c(=N/O)cc(C(=O)N3CCN(S(=O)(=O)c4ccc(C)cc4)CC3)oc2c1`, the IC50 was more than 10 µM in test [1]; 36.9 µM in the test on A549; 33.1 µM in the test on SW480; 31.1 µM with HCT-116; 20.1 µM in the test on HeLa; more than 10 µM in test [2].
As for `COc1ccc2/c(=N/O)cc(C(=O)N3CCN(S(=O)(=O)c4ccc(C(F)(F)F)cc4)CC3)oc2c1`, the IC50 is 6.37 µM in test [1]; more than 50 µM in the test with A549; more than 50 µM in the test with SW480; more than 50 µM with HCT-116; more than 50 µM in the test with HeLa; 2.69 µM in test [2].
For `COc1ccc2/c(=N/O)cc(C(=O)N3CCN(S(=O)(=O)c4ccc(F)cc4)CC3)oc2c1`, the IC50 in test [1] was 7.23 µM; in the test with A549, more than 50 µM; with SW480, 12.4 µM; in the test on HCT-116, more than 50 µM; in the test with HeLa it was more than 50 µM; in test [2], 5.72 µM.
Take `COc1ccc2/c(=N/O)cc(C(=O)N3CCN(S(=O)(=O)c4cccc([N+](=O)[O-])c4)CC3)oc2c1`: the concentration for half-maximal inhibition (IC50) in test [1] was 4.46 µM; in the test with A549, more than 50 µM; with SW480 it was more than 50 µM; with HCT-116, 19.4 µM; with HeLa it was more than 50 µM; in test [2] it was 1.95 µM.
Turning to `COc1ccc2/c(=N/O)cc(C(=O)N3CCN(S(=O)(=O)c4cccc(Br)c4)CC3)oc2c1`, the IC50 was 9.81 µM in test [1]; more than 50 µM with A549; more than 50 µM with SW480; more than 50 µM in the test with HCT-116; 44.8 µM in the test with HeLa; 6.14 µM in test [2].
For `NS(=O)(=O)NCCNc1nonc1/C(=N/O)Nc1ccc(F)c(Br)c1` [EPACADOSTAT], the IC50 in the test with A549, with SW480, in the test on HCT-116 and in the test with HeLa was more than 50 µM throughout.
